Laboratory results as given in ChEMBL document CHEMBL1201862, “PubChem BioAssay data set” (2004).
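1) Cells in 96-well plates. 2) Compound, 48 h, 5 concentrations. 3) Linear interpolation between surrounding doses. 4) Unreached endpoint = highest concentration. At the GI50, growth is halved.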 Active and inactive are the calls of the source. Rule as the data show it: active = GI50 up to about 1.1 µM and inactive = higher.

Assays:
Test in all cases: NCI anticancer screen, dose series, 48 h
OVCAR-3 = test system: OVCAR-3
SNB-19 = test system: SNB-19
OVCAR-4 = test system: OVCAR-4
SR = test system: SR
SK-MEL-2 = test system: SK-MEL-2
KM12 = test system: KM12
HOP-62 = test system: HOP-62
DU-145 = test system: DU-145
SF-295 = test system: SF-295
NCI-H522 = test system: NCI-H522
A549 = test system: A549
NCI-H23 = test system: NCI-H23
SF-539 = test system: SF-539
HCT-116 = test system: HCT-116
PC-3 = test system: PC-3
HCC 2998 = test system: HCC 2998
SK-OV-3 = test system: SK-OV-3
LOX IMVI = test system: LOX IMVI
NCI-H460 = test system: NCI-H460
RPMI-8226 = test system: RPMI-8226

| SMILES | GI50 (OVCAR-3) | GI50 (SNB-19) | GI50 (OVCAR-4) | GI50 (SR) | GI50 (SK-MEL-2) | GI50 (KM12) | GI50 (HOP-62) | GI50 (DU-145) | GI50 (SF-295) | GI50 (NCI-H522) | GI50 (A549) | GI50 (NCI-H23) | GI50 (SF-539) | GI50 (HCT-116) | GI50 (PC-3) | GI50 (HCC 2998) | GI50 (SK-OV-3) | GI50 (LOX IMVI) | GI50 (NCI-H460) | GI50 (RPMI-8226) |
| --- | --- | --- | --- | --- | --- | --- | --- | --- | --- | --- | --- | --- | --- | --- | --- | --- | --- | --- | --- | --- |
| COC1(C)CCC(OS(C)(=O)=O)CO1 (stereo not given) | > 100 µM (inactive) | > 100 µM (inactive) | > 100 µM (inactive) | > 100 µM (inactive) | > 100 µM (inactive) | > 100 µM (inactive) | > 100 µM (inactive) | > 100 µM (inactive) | > 100 µM (inactive) | > 100 µM (inactive) | > 100 µM (inactive) | > 100 µM (inactive) | > 100 µM (inactive) | > 100 µM (inactive) | > 100 µM (inactive) | > 100 µM (inactive) | > 100 µM (inactive) | > 100 µM (inactive) | > 100 µM (inactive) | > 100 µM (inactive) |
| Cc1c(CCCl)c(Cl)n2c(nc3ccccc32)c1C#N | 1.35 µM (inactive) | 1.89 µM (inactive) | 1.44 µM (inactive) | 0.112 µM (active) | 1.06 µM (active) | 1.19 µM (inactive) | 2 µM (inactive) | 1.69 µM (inactive) | 1.31 µM (inactive) | 0.432 µM (active) | 1.4 µM (inactive) | 0.904 µM (active) | 0.681 µM (active) | 0.229 µM (active) | 1.02 µM (active) | 1.56 µM (inactive) | 4.9 µM (inactive) | 0.281 µM (active) | 0.456 µM (active) | 0.092 µM (active) |
| C[C@@H]1CCC2[C@@H](C)[C@@H](O[C@H]3O[C@@H]4O[C@@]5(C)CCC6[C@H](C)CCC([C@H]3C)[C@]64OO5)O[C@@H]3O[C@@]4(C)CCC1[C@@]23OO4 (stereo not given in full) | 7.45 µM (inactive) | > 25 µM (inactive) | 7.62 µM (inactive) | 0.724 µM (active) | 16 µM (inactive) | 0.865 µM (active) | > 25 µM (inactive) | > 25 µM (inactive) | > 16.7 µM (inactive) | 0.861 µM (active) | 18.6 µM (inactive) | 1.1 µM (active) | > 5.51 µM (inactive) | 0.659 µM (active) | 0.18 µM (active) | > 25 µM (inactive) | > 25 µM (inactive) | 0.973 µM (active) | > 25 µM (inactive) | 0.586 µM (active) |
| COC(=N)C1(C#N)NC(c2ccsc2)C(C#N)(C#N)NC1c1ccsc1 (stereo not given) | > 100 µM (inactive) | > 100 µM (inactive) | > 100 µM (inactive) | > 100 µM (inactive) | > 100 µM (inactive) | > 100 µM (inactive) | > 100 µM (inactive) | > 100 µM (inactive) | > 100 µM (inactive) | > 100 µM (inactive) | > 100 µM (inactive) | > 100 µM (inactive) | > 100 µM (inactive) | > 100 µM (inactive) | 81.1 µM (inactive) | > 100 µM (inactive) | > 100 µM (inactive) | > 100 µM (inactive) | > 100 µM (inactive) | > 100 µM (inactive) |
| COc1cc2c(cc1OC)[C@H]1C(=O)c3cc4c(cc3[C@H]1N(C)C2=O)OCO4 | 19.2 µM (inactive) | 6.35 µM (inactive) | > 100 µM (inactive) | 0.557 µM (active) | > 100 µM (inactive) | 36.6 µM (inactive) | 5.07 µM (inactive) | 8.43 µM (inactive) | 2.35 µM (inactive) | 1.06 µM (active) | 21.8 µM (inactive) | 5.2 µM (inactive) | 3.94 µM (inactive) | 2.22 µM (inactive) | 9.04 µM (inactive) | 37.6 µM (inactive) | 6.7 µM (inactive) | 1.5 µM (inactive) | 0.955 µM (active) | 4.34 µM (inactive) |
| O=C1c2ccccc2CC12Cc1ccc3c(c1C2)CCC3 (stereo not given) | 17.4 µM (inactive) | 48.1 µM (inactive) | 22.2 µM (inactive) | 14 µM (inactive) | 15.9 µM (inactive) | 24.4 µM (inactive) | 23.3 µM (inactive) | 34.6 µM (inactive) | 25.4 µM (inactive) | 4.54 µM (inactive) | 17.5 µM (inactive) | 28.8 µM (inactive) | 27.5 µM (inactive) | 16.9 µM (inactive) | 26 µM (inactive) | 24.3 µM (inactive) | 33.3 µM (inactive) | 12.4 µM (inactive) | 23.7 µM (inactive) | 19 µM (inactive) |
| CO[C@H]1C[C@@H]2CC[C@@H](C)[C@@](O)(O2)C(=O)C(=O)N2CCCC[C@H]2C(=O)O[C@H]([C@H](C)C[C@@H]2CC[C@@H](OC(=O)C(C)(CO)CO)[C@H](OC)C2)CC(=O)[C@H](C)/C=C(\C)[C@@H](O)[C@@H](OC)C(=O)[C@H](C)C[C@H](C)/C=C/C=C/C=C/1C [TEMSIROLIMUS] | 0.00183 µM (active) | 0.0258 µM (active) | 0.0247 µM (active) | 0.000361 µM (active) | 0.051 µM (active) | 0.0264 µM (active) | 0.00125 µM (active) | 0.0975 µM (active) | 0.000557 µM (active) | 0.0802 µM (active) | 0.0301 µM (active) | 0.00501 µM (active) | 0.00873 µM (active) | 3.26 µM (inactive) | 0.00123 µM (active) | 1.82 µM (inactive) | 1.97 µM (inactive) | 0.00327 µM (active) | 0.0678 µM (active) | 0.000292 µM (active) |
| Cc1ccc2c(c1)-c1c(C#N)c(N)nc(-c3ccccc3)c1CCS2(=O)=O | 5.47 µM (inactive) | 4.16 µM (inactive) | 52 µM (inactive) | 0.834 µM (active) | > 29.2 µM (inactive) | 4.85 µM (inactive) | 6.95 µM (inactive) | 6.19 µM (inactive) | 5.47 µM (inactive) | 1.12 µM (inactive) | 11 µM (inactive) | 8.65 µM (inactive) | 6.35 µM (inactive) | 6.38 µM (inactive) | 13.4 µM (inactive) | 8.13 µM (inactive) | 5.53 µM (inactive) | 12.6 µM (inactive) | 4.17 µM (inactive) | 4.56 µM (inactive) |
| COc1ccc(Cc2c(-c3ccc(C)cc3)n[nH]c(=O)c2C2C(=O)N(c3ccccc3)N=C2c2ccccc2)cc1 (stereo not given) | 19 µM (inactive) | 36.1 µM (inactive) | 48.2 µM (inactive) | 37.1 µM (inactive) | 21.9 µM (inactive) | 22.3 µM (inactive) | 40.1 µM (inactive) | 43.7 µM (inactive) | 24.3 µM (inactive) | 44.3 µM (inactive) | 31.4 µM (inactive) | 25.8 µM (inactive) | 25.1 µM (inactive) | 21.8 µM (inactive) | 26.7 µM (inactive) | 27.6 µM (inactive) | 52.8 µM (inactive) | 20.6 µM (inactive) | 30.5 µM (inactive) | 42 µM (inactive) |
| CN(C)c1nc(N(C)C)nc(N(C)C)n1 [ALTRETAMINE] | 142 µM (inactive) | > 144 µM (inactive) | > 143 µM (inactive) | > 150 µM (inactive) | > 150 µM (inactive) | > 150 µM (inactive) | 139 µM (inactive) | > 150 µM (inactive) | > 150 µM (inactive) | 141 µM (inactive) | > 147 µM (inactive) | > 143 µM (inactive) | > 143 µM (inactive) | > 150 µM (inactive) | > 150 µM (inactive) | > 123 µM (inactive) | > 150 µM (inactive) | > 145 µM (inactive) | > 124 µM (inactive) | > 143 µM (inactive) |
